PubChem BioAssay (NCI)
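In this assay, cells in 96-well plates receive the compound at five concentrations for 48 hours. Endpoints are linearly interpolated between the surrounding concentrations. TGI denotes the concentration required for complete inhibition of growth.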

Key:
Assay in all cases: NCI anticancer screen, dose series, 48 h
DU-145 prostate = system: DU-145 prostate
HCC-2998 colon = system: HCC-2998 colon
HL-60(TB) leukemia = system: HL-60(TB) leukemia
HS 578T breast = system: HS 578T breast
M14 melanoma = system: M14 melanoma
MCF7 breast = system: MCF7 breast
NCI-H460 lung = system: NCI-H460 lung
RPMI-8226 leukemia = system: RPMI-8226 leukemia
SR leukemia = system: SR leukemia
IGROV1 ovarian = system: IGROV1 ovarian

SMILES | TGI (DU-145 prostate) | TGI (HCC-2998 colon) | TGI (HL-60(TB) leukemia) | TGI (HS 578T breast) | TGI (M14 melanoma) | TGI (MCF7 breast) | TGI (NCI-H460 lung) | TGI (RPMI-8226 leukemia) | TGI (SR leukemia) | TGI (IGROV1 ovarian)
O=P1(N(CCCl)CCCl)Oc2ccc(Cl)cc2C(C(Cl)(Cl)Cl)c2cc(Cl)ccc2O1 (stereo not drawn) | > 100 µM | 34.3 µM | > 100 µM | 41 µM | 98.4 µM | 73.9 µM | 29.8 µM | > 100 µM | 30.6 µM | 
Nc1c(C(=O)c2ccc(Cl)c(Cl)c2)[nH]c(NCc2ccccc2)c1C(=S)Nc1ccccc1 | 32.4 µM | 3.48 µM | 38.4 µM |  | 12.6 µM | 12.3 µM | 20.7 µM | 6.03 µM | > 100 µM | 26.5 µM
COc1ccc(N2C(=O)C3c4[nH]c5c(C)cccc5c4C4CCC(C(C)C)CC4C3C2=O)cc1 (stereo not drawn) | 31.2 µM | 28.8 µM |  | 27.7 µM | 26.8 µM | 31.4 µM | 39.7 µM | > 100 µM | 32.5 µM | 23.5 µM
C=C(Br)CN=CN(C)C | > 100 µM |  | > 100 µM | > 100 µM | > 100 µM | > 100 µM |  | > 100 µM | > 100 µM | > 100 µM
CC1=C(C)C(=O)C(C2=CC(=O)c3ccccc3C2=O)=C(C2=CC(=O)c3ccccc3C2=O)C1=O | 12.5 µM | 19.8 µM | 12.3 µM | > 100 µM | > 40.8 µM |  | 25.4 µM |  |  | 29.8 µM
CCOC(=O)c1cc(-c2ccc(OC)cc2)c([N+](=O)[O-])[nH]1 | > 10 µM | > 10 µM | > 10 µM | > 10 µM | > 10 µM | > 10 µM | > 10 µM |  | > 10 µM | > 10 µM
O=C(Nc1ccccc1)N1CCN(C(=O)Nc2ccccc2)C1=S | > 100 µM | > 100 µM | > 100 µM | > 100 µM | > 100 µM |  | > 100 µM | > 100 µM | > 100 µM | > 100 µM
CC(=O)n1[nH]c(=O)n(-c2ccc(Cl)cc2)c1=O | > 100 µM | > 100 µM | > 100 µM |  | > 100 µM | > 100 µM | > 100 µM | > 100 µM | > 100 µM | > 100 µM
CC(=O)C(=Cc1cn(C)c(=O)n(C)c1=O)C(C)=O |  | 264 µM | 271 µM |  |  | 625 µM | 231 µM | 284 µM |  | 470 µM
CCC1(c2ccc(N3C(=O)c4cccc5cc([N+](=O)[O-])cc(c45)C3=O)cc2)CCC(=O)NC1=O (stereo not drawn) | > 69.2 µM | > 88.6 µM |  | 64.4 µM | > 100 µM | > 100 µM | > 50 µM | > 100 µM |  | 38.6 µM
NC(=O)CCC(N=c1c2ccccc2n(O)c2ccccc12)C(=O)O (stereo not drawn) |  | > 100 µM | > 100 µM |  | > 100 µM |  | > 100 µM | 97.3 µM |  | > 100 µM
FC1=C2C3CCC(C3)C2C1(F)F (stereo not drawn) | > 100 µM | > 100 µM | > 100 µM |  | > 100 µM | > 100 µM | > 100 µM | > 100 µM |  | > 100 µM
Oc1ccc(C(O)C2CCCCN2)cc1O (stereo not drawn) | > 100 µM |  |  | > 100 µM | > 100 µM | > 100 µM | > 100 µM | > 100 µM | > 100 µM | > 100 µM
COC(=O)c1sc(=O)sc1SCc1cccc(CSc2sc(=O)sc2C(=O)OC)c1 | > 100 µM | > 100 µM |  | > 100 µM | > 100 µM | > 100 µM | > 100 µM |  |  | > 100 µM
N[C@@H](CCC(=O)NC(Cc1ccccc1)C(=O)NCP(=O)(O)O)C(=O)O (stereo partly drawn) |  | > 100 µM | > 100 µM | > 100 µM |  | > 100 µM | > 100 µM | > 100 µM | > 100 µM | > 100 µM
CC(=O)CC1(CBr)Nc2ccc([N+](=O)[O-])cc2NC1=O (stereo not drawn) | > 100 µM | > 100 µM |  |  | > 100 µM | > 100 µM | > 100 µM | > 100 µM | > 100 µM | > 100 µM
COP(=O)(OC)OCN(C)CC/C=C(\C)CC/C=C(\C)CCC=C(C)C |  | 23.8 µM |  |  | 28 µM | 28.5 µM | 23.9 µM | 28.3 µM |  | 25.8 µM
CC(C)(C)C(=O)Nc1c(C=O)ccc2[nH]cnc12 |  | > 100 µM |  |  | > 100 µM | > 100 µM | > 100 µM | > 100 µM |  | > 100 µM
Cc1ccccc1NC(=O)CSc1nnc(-c2ccc(N=Cc3ccc(Cl)cc3)cc2)o1 |  |  | > 100 µM |  | > 100 µM |  | > 100 µM | > 100 µM | > 100 µM | 
CCOC(=O)c1c(-c2ccc(OC)cc2)ccn1C | > 10 µM | > 10 µM |  | > 10 µM | > 10 µM | > 10 µM | > 10 µM |  | > 10 µM | > 10 µM
CC1=C(CO)C(=O)OC(C(C)C2CCC3C4CC5OC56C(O)C(N5CC5)=CC(=O)C6(C)C4CCC23C)C1 (stereo not drawn) |  | 9.73 µM | 6.08 µM |  | 24.6 µM |  | 25 µM | 17.8 µM | 10.5 µM | 14.4 µM
Cn1/c(=N\N=C2\C=C3CCCCC3(C)CC2)sc2ccccc21 (stereo not drawn) | > 100 µM | > 100 µM | > 100 µM | > 100 µM | > 100 µM | > 100 µM | > 100 µM |  | > 100 µM | > 100 µM
CCN1CC2(C)CCC(OC)C34C5CC6CCC(O)(C5C(=O)O6)C(C(O)C23)C14 (stereo not drawn) | > 100 µM |  | > 100 µM | > 100 µM | > 100 µM | > 100 µM | > 100 µM | > 100 µM |  | > 100 µM
CC(Nc1ccc(Cl)cc1)c1ccncc1 (stereo not drawn) | > 100 µM | > 100 µM |  | > 100 µM | > 100 µM | > 100 µM | > 100 µM | 98.3 µM |  | > 100 µM
CC(C)CCCC(C)[C@H]1CCC(C2C[C@@H](O)[C@@H]3CC(O)[C@@H](O)C[C@]3(CO)C2=O)[C@]1(C)CCO (stereo partly drawn) |  | 38.4 µM | 38.6 µM |  |  | 20.4 µM | 45.2 µM | > 100 µM |  | 42.4 µM
ClC1=NN=C(c2c[nH]c3ccccc23)CC1NCc1ccccc1 (stereo not drawn) | > 100 µM |  | > 100 µM | > 100 µM | > 100 µM |  | > 100 µM | > 100 µM |  | > 100 µM
